From PubChem BioAssay (NCI)
Where “and” joins values, the source holds several entries; their conditions need not be identical. Equal entries are not always repeated.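 Each compound was tested at five concentrations against cells in 96-well plates for 48 hours. At the GI50, growth is halved. TGI marks complete inhibition of growth.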

Legend:
Test in all cases: inhibition of tumour cell growth, NCI panel, 48 h
[1] = system: NCI/ADR-RES ovarian
[2] = system: EKVX NSCLC
[3] = system: IGROV1 ovarian
[4] = system: UACC-62 melanoma
[5] = system: OVCAR-4 ovarian
[6] = system: K-562 leukemia
[7] = system: SNB-75 CNS
[8] = system: HS 578T breast
[9] = system: SNB-19 CNS
[10] = system: HOP-92 NSCLC

SMILES	GI50 [1] [µM]	TGI [1]	GI50 [2] [µM]	TGI [2] [µM]	GI50 [3] [µM]	TGI [3] [µM]	GI50 [4] [µM]	TGI [4]	GI50 [5] [µM]	TGI [5] [µM]	GI50 [6] [µM]	TGI [6] [µM]	GI50 [7] [µM]	TGI [7] [µM]	GI50 [8] [µM]	TGI [8] [µM]	GI50 [9] [µM]	TGI [9] [µM]	TGI [10] [µM]	GI50 [10] [µM]
O=C1OCC2=C1C(c1cccc(Cl)c1)c1cc3c(cc1N2CCO)OCCO3 (stereo not drawn)	0.0631	0.373 µM	1.54	> 89.8	0.0792	> 47.4	0.0367	> 70 µM	0.118	> 100	0.0481	> 45.7	0.0419	39.3	0.0747	> 78.2	0.0747	> 100	–	–
Cc1cn(C2CC3C(COCN3O)O2)c(=O)[nH]c1=O (stereo not drawn)	–	–	–	> 100	–	> 100	–	> 100 µM	–	> 100	–	> 100	–	> 100	–	–	–	> 100	–	–
CCOC(=O)CC[C@H](NC(=O)c1nc[nH]c1[N+](=O)[O-])C(=O)OCC	–	–	–	> 100	–	> 100	–	> 100 µM	–	> 100	–	> 100	–	–	–	–	–	> 100	> 100	–
C[C@H](OCc1ccccc1)C(=O)N1CCS(=O)(=O)N2CCC[C@@H]2C1=O	–	–	–	> 100	–	> 100	–	> 100 µM	–	> 100	–	> 100	–	> 100	–	–	–	> 100	> 100	–
C=Cc1cncc(C#N)c1CCc1c(C#N)cncc1C=C	–	–	> 10	> 100	> 100	> 100	> 100	> 100 µM	–	> 10	> 100	> 100	> 100	> 100	–	–	> 100	> 100	> 10	–
COc1ccc(/C=C/c2cc(OC)c(OC)c(OC)c2)cc1	–	–	–	> 100	–	> 100	–	> 100 µM	–	> 100	34	> 100	–	> 21.7	–	–	–	> 100	> 100	–
CC1=NN(C(=O)c2ccccc2O)C(=O)/C1=C/c1ccc(O)cc1	–	28.3 µM	–	> 100	–	5.03	–	5.06 µM	–	> 100	–	> 100	–	> 100	–	–	–	> 100	–	–
Cc1nc(Nc2ccccc2)sc1C(=O)CC(=O)C(=O)Nc1c(C(C)C)cccc1C(C)C	–	–	–	89.5	–	> 100	–	> 100 µM	–	> 100	–	> 100	–	–	–	–	–	> 100	> 100	–
C/C(=N/NC(=S)N1CCCCC1)c1ccccc1O	–	> 31.6 µM	–	> 31.6	–	> 100	–	> 31.6 µM	–	> 31.6	–	> 31.6	–	–	–	> 31.6	–	> 31.6	> 31.6	–
CCCCCCCCCCCCCCCC(=O)OCC1OC(n2cc(F)c(=O)[nH]c2=O)C(N)C(O)C1O (stereo not drawn)	–	–	–	35.6	–	–	–	30 µM	–	31.2	–	32.8	–	38.6	–	–	–	39.2	38.9	–
O=C1C(c2ccccc2)=C(O)c2cccc3cccc1c23	–	–	–	> 100	–	> 100	–	> 100 µM	–	> 100	–	> 100	–	> 100	–	–	–	> 100	> 100	–
CCOC(=O)/C(C1=NCCN1)=C(\O)c1ccccc1	–	–	–	> 100	–	> 100	–	> 100 µM	–	> 100	–	> 100	–	–	–	–	–	> 100	–	–
COc1cc2c[n+](C)c3c4cc(OC)c(OC(C)C)cc4ccc3c2cc1OC	–	–	–	> 100	–	> 100	–	> 100 µM	–	> 100	–	> 100	–	> 100	–	–	–	> 100	> 100	–
C[C@@H]1[C@H](C)N1CC(O)Cn1ccnc1[N+](=O)[O-] (stereo partly drawn)	–	> 100 µM	–	> 100	–	> 100	–	> 100 µM	–	> 100	–	> 100	–	> 100	–	> 100	–	> 100	–	–
CC(CN(C)C)/C(=N\Nc1ccccc1)c1ccccc1 (stereo not drawn)	–	–	–	35.6	–	> 100	–	12.3 µM	–	19.8	–	0.527	–	66.8	–	–	–	34.4	–	–
Cc1cccc(/C=N/NC(=S)N2CCCC2)n1	0.319	6.93 µM and 4.89 µM	3.18	–	0.415	> 100	0.587	2.8 µM and 1 µM	–	6.95	0.17	> 100	–	–	–	> 100	1.4	> 34.6	–	0.536
CCCCCCC[CH2][Sn]([CH2]CCCCCCC)([O]c1cccc2cccnc12)[O]c1cccc2cccnc12	–	–	2.06	7.18	2.19	5.26	1.82	3.9 µM	–	–	0.586	3.86	2.74	9.53	–	–	2.94	9.31	–	–
COc1ccc(CCN2CC=Cn3c2nc2ccccc2c3=O)cc1	0.0179	0.77 µM	0.185	> 100	0.0509	> 50.3	0.232	> 100 µM	0.0637	> 96	0.0203	> 100	–	–	0.0329	77.4	0.0614	> 100	29.5	0.127
CSc1nnc(CCC(=O)Nc2c(C)cccc2C)o1	–	–	–	> 100	–	> 100	–	> 100 µM	–	> 100	–	> 100	–	> 100	–	–	–	> 100	> 100	–
O=C1CCCCCCCCCCC1CN1CCCC1 (stereo not drawn)	–	> 100 µM	–	–	–	> 100	–	36.7 µM	–	–	–	> 100	–	> 100	–	84.7	–	> 100	–	–
CC(=O)Nc1ccc(S(=O)(=O)N/N=C/CN2C(=O)c3ccccc3C2=O)cc1	–	–	–	> 100	–	> 100	–	> 100 µM	–	> 100	–	> 100	–	> 100	–	–	–	> 100	–	–
COc1cc2ccnc3c2c(c1OC)-c1coc(SC)c1-3	–	–	–	–	–	> 100	–	> 100 µM	–	> 100	–	> 100	–	79.3	–	–	–	> 100	> 100	–
C=C/C=C/NC(=O)OCc1ccccc1	–	–	–	> 100	–	> 100	–	> 100 µM	–	> 100	–	> 100	–	> 100	–	–	–	> 100	> 100	–
